ChEMBL document CHEMBL1140658, “Inhibitors of anthrax lethal factor” (Bioorg Med Chem Lett, 2007)
pIC50, pKi: −log10 of the molar value. Calls of active or inactive are those of the source. No cut-off for these calls is given here.

Assays:
[1] = biological target: T1, Lethal factor (Bacillus anthracis) (UniProt P15917); assay: (§1) Inhibition of anthrax lethal factor upto 100 uM by FRET assay
T1 sequence (whole entry): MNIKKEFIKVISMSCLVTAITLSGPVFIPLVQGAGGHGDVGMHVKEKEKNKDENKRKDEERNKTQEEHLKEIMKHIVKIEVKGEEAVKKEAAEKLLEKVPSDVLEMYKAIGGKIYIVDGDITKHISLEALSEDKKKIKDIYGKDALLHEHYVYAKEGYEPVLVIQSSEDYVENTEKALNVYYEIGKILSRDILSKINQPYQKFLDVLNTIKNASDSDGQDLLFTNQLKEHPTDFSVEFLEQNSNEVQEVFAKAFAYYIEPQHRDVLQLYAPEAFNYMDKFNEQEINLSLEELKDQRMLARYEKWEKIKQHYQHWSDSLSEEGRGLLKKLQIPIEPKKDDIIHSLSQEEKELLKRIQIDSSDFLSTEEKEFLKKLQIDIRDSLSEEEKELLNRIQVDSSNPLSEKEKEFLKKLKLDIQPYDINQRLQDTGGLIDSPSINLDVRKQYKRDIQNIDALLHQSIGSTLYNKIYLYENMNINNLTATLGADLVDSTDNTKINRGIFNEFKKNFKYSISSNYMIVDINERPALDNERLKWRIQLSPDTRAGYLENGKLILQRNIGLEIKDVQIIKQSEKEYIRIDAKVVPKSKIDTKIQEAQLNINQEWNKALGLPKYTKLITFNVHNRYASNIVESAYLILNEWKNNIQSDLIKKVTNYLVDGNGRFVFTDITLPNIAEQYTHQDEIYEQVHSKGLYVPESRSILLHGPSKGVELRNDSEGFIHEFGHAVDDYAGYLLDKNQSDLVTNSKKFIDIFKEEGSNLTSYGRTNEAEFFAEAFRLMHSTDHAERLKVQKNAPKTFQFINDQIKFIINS

[2] = biological target: T1, Lethal factor (Bacillus anthracis); assay: as §1; remark: listed apart in the source
[3] = test system: J774.A1; assay: Inhibition of anthrax lethal factor induced J774A.1 cell death at 85 uM by MTT assay; format: functional, cell-based; conditions: Mus musculus
[4] = test system: J774.A1; assay: Cytotoxicity against J774A.1 cells assessed as cell viability at 30 uM after 4 hrs by MTT assay; format: functional, cell-based; conditions: Mus musculus
[5] = test system: J774.A1; assay: Inhibition of anthrax lethal factor induced J774A.1 cell death at 20 uM by MTT assay; format: functional, Mus musculus; set-up: scale not given: the % may be the effect or the level left
[6] = biological target: T2, Lethal factor (Bacillus anthracis, UniProt P15917); assay: Inhibition of anthrax lethal factor by FRET assay
T2 sequence (P15917 whole entry): T1 sequence (whole entry)

[7] = test system: J774.A1; assay: Cytotoxicity against J774A.1 cells assessed as cell viability upto 30 uM after 4 hrs by MTT assay; format: functional, cell-based; conditions: Mus musculus
[8] = test system: J774.A1; assay: Inhibition of anthrax lethal factor induced J774A.1 cell death by MTT assay; format: functional, cell-based; conditions: Mus musculus

Structure (SMILES) | Activity [1] | Activity [2] | pIC50 [6] | pKi [6] | also measured
CCCCCCCC/C=C\CCCCCCCC(=O)NCCc1ccc(OC)c(OC)c1 | inactive | inactive |  |  | 
CCCCCCCC/C=C\CCCCCCCC(=O)NCCc1cc(O)c(O)c(O)c1 |  |  | 4.89 | 5.77 | Activity [3]: inactive; Activity [4]: inactive; Activity [5]: 46%
CCCCCCCC/C=C\CCCCCCCC(=O)NCCc1cc(O)c(O)cc1O |  |  | 4.15 |  | 
CCCCCCCC/C=C\CCCCCCCC(=O)NCCc1ccc(C(=O)NO)cc1 |  |  | 4.49 | 5.22 | 
CCCCCCCC/C=C\CCCCCCCC(=O)NCCc1ccc(O)c(O)c1 [OLEOYL DOPAMINE] |  |  | 4.82 | 5.52 | Activity [7]: Not toxic; pIC50 [8]: 5.30
CCCCCCCC/C=C\CCCCCCCC(=O)NCCc1ccc(O)cc1 | inactive | inactive |  |  | 
